Assay results taken from patent US20210317092A1 (BAYER PHARMA AKTIENGESELLSCHAFT, priority 2016, published 2021).
Like-named read-outs stand apart in the source and are kept apart here.

Target: T1, human Bradykinin B1 receptor (Homo sapiens, UniProt P46663)
T1 construct: host or cells: CHO-K1
T1 sequence (P46663 1-353): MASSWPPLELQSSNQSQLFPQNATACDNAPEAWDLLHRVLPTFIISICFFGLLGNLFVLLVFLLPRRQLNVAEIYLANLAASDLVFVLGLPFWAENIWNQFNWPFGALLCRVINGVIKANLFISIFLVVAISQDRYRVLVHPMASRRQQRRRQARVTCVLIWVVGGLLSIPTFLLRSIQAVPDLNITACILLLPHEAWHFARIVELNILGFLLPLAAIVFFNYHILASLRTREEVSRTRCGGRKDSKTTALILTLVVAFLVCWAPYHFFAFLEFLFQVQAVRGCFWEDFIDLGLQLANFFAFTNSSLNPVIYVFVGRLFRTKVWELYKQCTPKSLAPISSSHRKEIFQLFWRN
Experiment: Calcium flux Assay (FLIPR) with recombinant CHO-K1 cells expressing human Bradykinin B1 receptor, in presence (hB1 IC50) or absence (hB1 free IC50) of 0.1% BSA
Assay type: cell-based

[1] = in presence of 0.1% BSA, read-out: hB1 IC50
[2] = in absence of 0.1% BSA, read-out: hB1 free IC50

Structure (SMILES) | IC50 [1] [nM] | IC50 [2] [nM]
CCOc1ncc(-c2ccc(NC(=O)C3(c4ccc(C(F)(F)F)cc4)CC3)cc2-c2nnn[nH]2)cc1C [Example 161, N-[4-(6-ethoxy-5-methylpyridin-3-yl)-3-(1H-tetrazol-5-yl)phenyl]-1-[4-(trifluoromethyl)phenyl] cyclopropane-carboxamide] | 24.9 | –
CCOc1cc(-c2ccc(NC(=O)C3(c4cccc(Cl)c4)CC3)cc2-c2nnn[nH]2)cc(C(F)(F)F)n1 [Example 166, 1-(3-chlorophenyl)-N-{4-[2-ethoxy-6-(trifluoromethyl)pyridin-4-yl]-3-(1H-tetrazol-5-yl)phenyl} cyclopropane-carboxamide] | 2160 | 1130
CN(C)c1ccc(-c2ccc(NC(=O)C3(c4cccc(Cl)c4)CC3)cc2-c2nnn[nH]2)cn1 [Example 169, 1-(3-chlorophenyl)-N-{4-[6-(dimethylamino)pyridin-3-yl]-3-(1H-tetrazol-5-yl)phenyl} cyclopropane-carboxamide] | 117 | –
O=C(Nc1ccc(-c2ccnc(C(F)F)c2)c(-c2nnn[nH]2)c1)C1(c2cccc(Cl)c2)CC1 [Example 170, 1-(3-chlorophenyl)-N-{4-[2-(difluoromethyl)pyridin-4-yl]-3-(1H-tetrazol-5-yl)phenyl} cyclopropane-carboxamide] | – | 968
O=C(Nc1ccc(-c2ccnc(C(F)(F)F)c2)c(-c2nnn[nH]2)c1)C1(c2cccc(Cl)c2F)CC1 [Example 172, 1-(3-chloro-2-fluorophenyl)-N-{3-(1H-tetrazol-5-yl)-4-[2-(trifluoromethyl)pyridin-4-yl]phenyl} cyclopropane-carboxamide] | 347 | 433
O=C(Nc1ccc(-c2ccnc(C(F)(F)F)c2)c(-c2nnn[nH]2)c1)C1(c2ccc(F)c(Cl)c2)CC1 [Example 176, 1-(3-chloro-4-fluorophenyl)-N-{3-(1H-tetrazol-5-yl)-4-[2-(trifluoromethyl)pyridin-4-yl]phenyl} cyclopropane-carboxamide] | – | 258
O=C(Nc1ccc(-c2ccnc(C(F)(F)F)c2)c(-c2nnn[nH]2)c1)C1(c2ccc(Cl)c(F)c2)CC1 [Example 177, 1-(4-chloro-3-fluorophenyl)-N-{3-(1H-tetrazol-5-yl)-4-[2-(trifluoromethyl)pyridin-4-yl]phenyl} cyclopropane-carboxamide] | – | 274
O=C(Nc1ccc(-c2ccnc(F)c2)c(-c2nnn[nH]2)c1)C1(c2cccc(Cl)c2)CC1 [Example 182, 1-(3-chlorophenyl)-N-[4-(2-fluoropyridin-4-yl)-3-(1H-tetrazol-5-yl)phenyl] cyclopropane-carboxamide] | 1350 | 185
O=C(Nc1ccc(-c2cnc(NC3CC3)nc2)c(-c2nnn[nH]2)c1)C1(c2cccc(Cl)c2)CC1 [Example 185] | – | 251
N#Cc1ccc(-c2ccc(NC(=O)C3(c4cccc(Cl)c4)CC3)cc2-c2nnn[nH]2)cc1F [Example 186, 1-(3-chlorophenyl)-N-[4′-cyano-3′-fluoro-2-(1H-tetrazol-5-yl)biphenyl-4-yl]cyclopropane carboxamide] | – | 252
COc1ncccc1-c1ccc(NC(=O)C2(c3cccc(Cl)c3)CC2)cc1-c1nnn[nH]1 [Example 187, 1-(3-chlorophenyl)-N-[4-(2-methoxypyridin-3-yl)-3-(1H-tetrazol-5-yl)phenyl] cyclopropane-carboxamide] | – | 1620
CO[C@H]1CC[C@@H](c2ccc(NC(=O)C3(c4cccc(Cl)c4F)CC3)cc2-c2nnn[nH]2)CC1 [Example 189, 1-(3-chloro-2-fluorophenyl)-N-[4-(cis-4-methoxy-cyclohexyl)-3-(1H-tetrazol-5-yl)phenyl] cyclopropane-carboxamide] | – | 2350

Now from value to compound:

IC50 [1] [nM] | IC50 [2] [nM] | Structure (SMILES)
39.2 | – | COc1cncc(-c2ccc(NC(=O)C3(c4ccc(F)cc4F)CC3)cc2-c2nnn[nH]2)c1 [Example 150, 1-(2,4-difluorophenyl)-N-[4-(5-methoxypyridin-3-yl)-3-(1H-tetrazol-5-yl)phenyl] cyclopropane-carboxamide]
127 | – | COc1cncc(-c2ccc(NC(=O)C3(c4cccc(C)c4)CC3)cc2-c2nnn[nH]2)c1 [Example 151, N-[4(5-methoxypyridin-3-yl)-3-(1H-tetrazol-5-yl)phenyl]-1-(3-methylphenyl) cyclopropane-carboxamide]
23.5 | – | COc1cncc(-c2ccc(NC(=O)C3(c4cccc(C(F)(F)F)c4)CC3)cc2-c2nnn[nH]2)c1 [Example 152, N-[4-(5-methoxypyridin-3-yl)-3-(1H-tetrazol-5-yl)phenyl]-1-[3-(trifluoromethyl)phenyl] cyclopropane-carboxamide]
27.1 | – | COc1cncc(-c2ccc(NC(=O)C3(c4ccc(C(F)(F)F)cc4)CC3)cc2-c2nnn[nH]2)c1 [Example 154, N-[4-(5-methoxypyridin-3-yl)-3-(1H-tetrazol-5-yl)phenyl]-1-[4-(trifluoromethyl)phenyl] cyclopropane-carboxamide]
220 | – | CCOc1cncc(-c2ccc(NC(=O)C3(c4cccc(C(F)(F)F)c4)CC3)cc2-c2nnn[nH]2)c1 [Example 155, N-[4-(5-ethoxypyridin-3-yl)-3-(1H-tetrazol-5-yl)phenyl]-1-[3-(trifluoromethyl)phenyl] cyclopropane-carboxamide]
140 | – | CCOc1cncc(-c2ccc(NC(=O)C3(c4ccc(F)cc4F)CC3)cc2-c2nnn[nH]2)c1 [Example 157, 1-(2,4-difluorophenyl)-N-[4-(5-ethoxypyridin-3-yl)-3-(1H-tetrazol-5-yl)phenyl] cyclopropane-carboxamide]
764 | – | CCOc1ncc(-c2ccc(NC(=O)C3(c4cccc(Cl)c4)CC3)cc2-c2nnn[nH]2)cc1C(F)(F)F [Example 158, 1-(3-chlorophenyl)-N-{4-[6-ethoxy-5-(trifluoromethyl)pyridin-3-yl]-3-(1H-tetrazol-5-yl)phenyl} cyclopropane-carboxamide]
585 | 40.3 | CCOc1ncc(-c2ccc(NC(=O)C3(c4cccc(Cl)c4F)CC3)cc2-c2nnn[nH]2)cc1C(F)(F)F [Example 159, 1-(3-chloro-2-fluorophenyl)-N-{4-[6-ethoxy-5-(trifluoromethyl)pyridin-3-yl]-3-(1H-tetrazol-5-yl)phenyl} cyclopropane-carboxamide]
59 | – | CCOc1ncc(-c2ccc(NC(=O)C3(c4ccc(F)cc4F)CC3)cc2-c2nnn[nH]2)cc1C [Example 162, 1-(2,4-difluorophenyl)-N-[4-(6-ethoxy-5-methylpyridin-3-yl)-3-(1H-tetrazol-5-yl)phenyl] cyclopropane-carboxamide]
14.5 | – | CCOc1ncc(-c2ccc(NC(=O)C3(c4ccc(C(F)(F)F)cc4)CC3)cc2-c2nnn[nH]2)cc1F [Example 164, N-[4-(6-ethoxy-5-fluoropyridin-3-yl)-3-(1H-tetrazol-5-yl)phenyl]-1-[4-(trifluoromethyl)phenyl] cyclopropane-carboxamide]
64.1 | – | CCOc1ncc(-c2ccc(NC(=O)C3(c4ccc(F)cc4F)CC3)cc2-c2nnn[nH]2)cc1F [Example 165, 1-(2,4-difluorophenyl)-N-[4-(6-ethoxy-5-fluoropyridin-3-yl)-3-(1H-tetrazol-5-yl)phenyl] cyclopropane-carboxamide]
– | 634 | O=C(Nc1ccc(-c2cc(F)ncc2F)c(-c2nnn[nH]2)c1)C1(c2ccc(C(F)(F)F)cc2F)CC1 [Example 167, N-[4-(2,5-difluoropyridin-4-yl)-3-(1H-tetrazol-5-yl)phenyl]-1-[2-fluoro-4-(trifluoromethyl)phenyl] cyclopropane-carboxamide]
– | 1110 | O=C(Nc1ccc(-c2ccnc(C(F)(F)F)c2)c(-c2nnn[nH]2)c1)C1(c2ccc(F)cn2)CC1 [Example 174, 1-(5-fluoropyridin-2-yl)-N-{3-(1H-tetrazol-5-yl)-4-[2-(trifluoromethyl)pyridin-4-yl]phenyl} cyclopropane-carboxamide]
– | 287 | O=C(Nc1ccc(-c2ccnc(C(F)(F)F)c2)c(-c2nnn[nH]2)c1)C1(c2ccc(F)cc2F)CC1 [Example 178, 1-(2,4-difluorophenyl)-N-{3-(1H-tetrazol-5-yl)-4-[2-(trifluoromethyl)pyridin-4-yl]phenyl} cyclopropane-carboxamide]
– | 393 | O=C(Nc1ccc(-c2ccnc(C(F)(F)F)c2)c(-c2nnn[nH]2)c1)C1(c2cc(F)ccc2F)CC1 [Example 179]
– | 768 | COc1cc(C2(C(=O)Nc3ccc(-c4ccnc(C(F)(F)F)c4)c(-c4nnn[nH]4)c3)CC2)ccc1F [Example 180, 1-(4-fluoro-3-methoxyphenyl)-N-{3-(1H-tetrazol-5-yl)-4-[2-(trifluoromethyl)pyridin-4-yl]phenyl} cyclopropane-carboxamide]
575 | 569 | Cc1ncc(-c2ccc(NC(=O)C3(c4cccc(Cl)c4)CC3)cc2-c2nnn[nH]2)cn1 [Example 194, 1-(3-chlorophenyl)-N-[4-(2-methylpyrimidin-5-yl)-3-(1H-tetrazol-5-yl)phenyl] cyclopropane-carboxamide]
311 | 183 | Cc1ncc(-c2ccc(NC(=O)C3(c4cccc(Cl)c4F)CC3)cc2-c2nnn[nH]2)cn1 [Example 195, 1-(3-chloro-2-fluorophenyl)-N-[4-(2-methylpyrimidin-5-yl)-3-(1H-tetrazol-5-yl)phenyl] cyclopropane-carboxamide]
993 | 493 | O=C(Nc1ccc(-c2cnc(C(F)(F)F)nc2)c(-c2nnn[nH]2)c1)C1(c2cccc(Cl)c2F)CC1 [Example 197, 1-(3-chloro-2-fluorophenyl)-N-{3-(1H-tetrazol-5-yl)-4-[2-(trifluoromethyl)pyrimidin-5-yl]phenyl} cyclopropane-carboxamide]
